Experimental findings from patent US20050124618A1, “Methods of modulating angiogenesis and cancer cell proliferation” (priority 2003, published 2005) are described below.

Entries after “also recorded” stand apart in the source; their conditions may differ.

In one assay the test system is CYP4A11 mRNA. Nature of the assay: RT-PCR of CYP4A11 mRNA in U251 cultures. It is filed as cell-based, human. Conditions: 10 μM HET0016 for 24 hr. The protocol: EtOH-treated cultures were used as solvent controls. Briefly, total RNA was isolated with Trizol reagent (Invitrogen) and 1-2 μg RNA was used to synthesize cDNA using a First Strand synthesis kit (Invitrogen). We used PCR primers that specifically recognize CYP4A11, and β-actin-specific primers. A 1 μCi ^32P per sample was added to Platinum PCR Supermix (Invitrogen). The PCR conditions used to amplify CYP4A 11 and β-actin consisted of a precycle of 95° C for 3 min followed by 35 cycles of 95° C for 45 s, 52° C. for 30 s, and 72° C. for 2 min, with final extension at 72° C. for 10 min. The primers used were: β-actin forward primer, 5′-TGCGTGACATTAAGGAGAAG-3′ (SEQ ID NO:3); β-actin reverse primer, 5′-GCT CGT AGC TCT TCT CCA-3′ (SEQ ID NO:4); CYP4A11 forward primer, 5′-CCACCTGGACCAGAGGCCCTACACCACC-3′ (SEQ ID NO:5); CYP4A11 reverse primer, 5′-AGGATATGGGCAGACAGGAA-3′(SEQ ID NO:6). PCR products were subjected to electrophoresis in 5% bis-acrylamide gels and visualized by autoradiography.

Assay [1] has as its system primary human keratinocytes. Nature of the assay: Proliferation of primary human keratinocytes (comparison with U251). Format: cell-based. Conditions: 10 μM HET0016, 48 hrs; DDMS concentration not given. The method, then:
Mean values±SD from three separate experiments, each performed in triplicate, are presented. *** indicates p<0.001 from the respective control values.
(§1) Cell Proliferation Assays: Proliferation studies were performed with cultures plated at a density that ensured exponential growth for at least 5 days. Growth medium was generally replaced by serum-free medium 24 hr after plating. Cells were treated with various concentrations of a given compounds for 24 or 48 hr as described in the Methods. […] Organic solvent never exceeded 0.1% of total culture volume. Cells were harvested by exposure to 0.05% trypsin/EDTA and counted using a hemocytometer.

The subject of a further assay is SAPK/JNK. Nature of the assay: Western blot of phospho-SAPK/JNK in 9L cells. It is filed as cell-based, rat. The following applies: 10 μM HET0016; 4 hr, 24 hr, 48 hr. The protocol: They were then pelleted by centrifugation at 1,000 g for 5 min at 4° C. The cells were lysed by adding RIPA buffer [20 mM HEPES (pH 7.4), 100 mM NaCl, 1% Nonidet P-40, 0.1% SDS, 1% deoxycholic acid, 10% glycerol, 1 mM EDTA, 1 mM NaVO3, 50 mM NaF, and protease inhibitors Set 1 (Calbiochem, La Jolla, Calif.)]. The plates were then scraped and the cells were collected in a 1.5-ml centrifuge tube, followed by incubation on ice for 30 min. The cell homogenates were centrifuged for 10 min at 14,000 g and 4° C.; the pellets were discarded and the protein concentrations in the supernatant determined by bicinchoninic acid (BCA) protein assay.
Typically, 20 μg of protein obtained from the cell homogenates was separated on a 14% Tris-glycine gel (Invitrogen) and transferred to a PVDF membrane (Biotrace, Bothell, Wash.). The membranes were blocked for 1 hr at room temperature with blocking buffer [0.2% I-Block reagent (Tropix, Bedford, Mass.), 0.1% Tween-20 in 1×PBS] and then incubated with the primary antibodies in blocking buffer overnight at 4° C. Phospho-p42/p44 MAPK (T202/Y204)(20G11), and phospho-SAPK/JNK (T183/Y185) (98F2) monoclonal antibodies were purchased from Upstate (Waltham, Mass.). […] Both phospho-p44/p42MAPK and phospho-SAPK/JNK were detected using 1:1000 antibody dilutions. […]

A further assay deals with U251 human glioma cells. In words: U251 cell proliferation assay (cell counting). It is filed as cell-based. The method, then: Culture Conditions: Cells were routinely maintained in DMEM (Invitrogen) supplemented with 10% heat-inactivated fetal bovine serum (FBS), penicillin (10 IU/ml), streptomycin (10 μg/ml) and 10% non-essential amino acids (all purchased from Invitrogen). Cells were maintained at 37° C. in a humidified incubator containing 5% CO2. They were grown in medium containing 10% FBS, which was then replaced with serum-free medium where U251 cells grow exponentially. Treatments were initiated one day after serum removal.
as §1

The subject of another assay is VEGF. Nature of the assay: Western blot of VEGF protein expression in TA muscle. Format: in vivo, rat. The protocol:
Western blot analysis to detect the presence of VEGF protein: The 100-mg TA muscle specimens were homogenized, and the protein was suspended in potassium buffer (10 mM). Five micrograms of protein (as determined by a protein assay kit, Bio-Rad; Hercules, Calif.) from the TA and a tumor cell line known to express VEGF at high levels (C6, American Type Culture Collection, 107-CCL) were separated on a 12% denaturing polyacrylamide gel. The gels were transferred to a nitrocellulose membrane, which was blocked overnight in 5% nonfat dry milk diluted in Tris-buffered saline (50 mM Tris and 750 mM NaCl, pH 8) with 0.08% Tween 20 (Bio-Rad). The blots were then incubated with a […] antibody to a peptide derived from the human VEGF sequence (1:1,000 dilution, clone G143-850, Pharmingen) for 2 h at room temperature. Washed blots were then incubated with goat anti-mouse secondary antibody at a dilution of 1:1,000 for 1 h at room temperature and then subjected to a SuperSignal West Dura chemiluminescence substrate (Pierce; Rockford, Ill.) detection system. Membranes were exposed to X-ray film (Fuji Medical; Stamford, Conn.) for 15 to 30 s and developed using a Kodak M35 X-Omat processor. For the quantitative VEGF analysis, film was always exposed for a period of time that ensured that all signals were within the linear range of the detection of the film. The VEGF band intensity was quantified using a morphometry imaging system (Metamorph, Universal Imaging; West Chester, Pa.), and values are expressed as a percentage of the C6 tumor cell standard.
(In general: Immunoblotting shows a protein as a band on a membrane.)

Regarding `CCCCc1ccc(N=CNO)c(C)c1` [HET0016, N-hydroxy-N′-(4-butyl-2 methylphenyl) formamidine], the CYP4A11 transcript levels entry with CYP4A11 mRNA is on record as “decreased”. Besides, the “effect on basal growth or proliferation of primary human keratinocytes” value in assay [1] was “Neither DDMS or HET0016 had any effect; also recorded: had no effect on the basal growth or proliferation; also recorded: had no effect on the proliferation”. In addition, the “phosphorylation of SAPK/JNK” value in the assay with SAPK/JNK was “decreases the phosphorylation; also recorded: significantly reduced the phosphorylation; also recorded: inhibition appears to peak at 48 hr”. Besides, the “effect on EGF-induced proliferation of U251 cells” value in the assay with U251 human glioma cells (200 ng/ml EGF + 10 μM HET0016, 48 hr) is “inhibited; also recorded: inhibits the effects of EGF”. In addition, in the assay with U251 human glioma cells (96-well plates, HET0016 for 48 hrs), the “inhibition of proliferation of U251 cancer cells (FIG. 17)” value was “about 50%”. Besides, in the assay with U251 human glioma cells (Homo sapiens, U-251, 48 h), the inhibition (as a rule, the share of the control response that was lost under treatment) at 10 µM is around 60%. The “concentration dependence of inhibition of U251 proliferation” value in the assay with U251 human glioma cells (various concentrations) is “suppressed by HET0016 in a concentration-dependent manner”. The “effect on increases in VEGF protein expression induced by electrical stimulation” value with VEGF (7 days stimulation) is “did not block”. Also, the “effect on baseline VEGF expression” value in the assay with VEGF (7 days treatment) was “Neither HET0016 nor ABT had any effect”.
